Results as given in patent US20170360029A1, “Chemical Agent For Controlling Soil Nematode Which Comprises Macrolide-Type Compound” (Maruwa Biochemical Co., Ltd., priority 2012, published 2017).
≈ marks a conversion by molar mass, not a printed value.

Columns and labels:
[1] = test system: sweet potato root-knot nematodes; assay: Nematode Control Test Example 1: emulsions mixed with infested soil, cherry tomato pot test; format: in vivo; settings: for Aerial part weight / Root-knot parasitism level: cherry tomato, after six weeks, sprayed liquid 10 ppm, concentration in soil 0.3 ppm; for Aerial part weight: mixed with soil; for nematode control effect (in words): concentration of active ingredient in the soil of 0.3 ppm; for Root-knot parasitism level: scale 0-4, mean
Method: Each of abamectin 7.5% emulsion from NO. […] One liter of Pleistocene volcanic ash soil in which sweet potato root-knot nematodes had proliferated (the mean of initial sweet potato root-knot nematode density in the fourth-repeated cultivations: 235 nematodes/20 g of soil) was placed in a polyethylene bag and 30 ml of 10 ppm liquid of each chemical agent was mixed therewith while sprayed. The soil mixed with the chemical agent was filled in a pot with a surface area of 162 cm^2. A group where 1 L of soil was mixed and treated with 200 mg of a commercially available organophosphorus-based nematocide fosthiazate 1.5% granule (Ishihara Nemathorin Ace granule, a product from Ishihara Sangyo Kaisha, Ltd.) as a control chemical agent and a group with no treatment were set up. After the treatment with the chemical agent, three stocks of cherry tomato (variety Regina nursery plant with three true leaves, a product from Takii seed Co., Ltcd.) were planted. The test was repeated twice and cultivation management was conducted in a greenhouse. After six weeks, the weight of aerial parts and root-knot parasitism level were investigated.
(§1) In the test below, evaluation criteria for the root-knot parasitism level are as follows:
(§2) The evaluation was conducted using additional intermediate levels of 0.5 between each parasitism levels below at the investigation.
(§3) Parasitism level 0: No root-knots are noted at all.
(§4) Parasitism level 1: The formation of root-knots is noted in not more than 25% of the root.
(§5) Parasitism level 2: The formation of root-knots is noted in more than 25% and not more than 50% of the root.
(§6) Parasitism level 3: The formation of root-knots is noted in more than 50% and not more than 75% of the root.
(§7) Parasitism level 4: The formation of root-knots is noted in more than 75% of the root.

[2] = Non Patent Literature 4; cited from earlier work
[3] = test system: sweet potato root-knot nematodes; assay: Nematode Control Test Example 2: abamectin and moxidectin emulsions, pot test; format: in vivo; settings: for Aerial part weight: cherry tomato; for Aerial part weight / Root-knot parasitism level: after eight weeks; for Root-knot parasitism level: scale 0-4, mean
Method: as §1, §2, §3, §4, §5, §6, §7
Abamectin 7.5% emulsion from NO. 3 in Formulation Example 1 and moxidectin 7.5% emulsion from NO. 38 in Formulation Example 3 were prepared by diluting with tap water (water hardness about 70) at a concentration of active ingredient of 5 ppm, 10 ppm, and 20 ppm. One liter of Pleistocene volcanic ash soil in which sweet potato root-knot nematodes had proliferated (initial sweet potato root-knot nematode density: the mean in fourth-repeated cultivations 260 nematodes/20 g of soil) was placed in a polyethylene bag and 30 ml of each of the above was mixed therewith while sprayed. The soil mixed with the chemical agent was filled in a pot with a surface area of 162 cm^2. A group where 1 L of soil was mixed and treated with 200 mg of a commercially available organophosphorus-based nematocide fosthiazate 1.5% granule as a control chemical agent and a group with no treatment were set up. After the treatment with the chemical agent, four stocks of cherry tomato (variety Regina nursery plant with four true leaves) were planted. The test was repeated twice and cultivation management was conducted in a greenhouse. After eight weeks, the weight of aerial parts and root-knot parasitism level were investigated.

[4] = cited from earlier work
[5] = sprayed liquid 5 ppm, concentration in soil 0.15 ppm
[6] = sprayed liquid 10 ppm, concentration in soil 0.3 ppm
[7] = sprayed liquid 20 ppm, concentration in soil 0.6 ppm

Row | Compound | Aerial part weight [1] [g/stock] | nematode control effect (in words) [1] | Root-knot parasitism level [1] | further results
1 | abamectin | 3.7 | apparent nematode control effect | 0.75 | breakdown by soil microorganisms [2]: quickly broken down; soil adsorption [2]: very high; Aerial part weight [3, 5]: 55 g/stock; Aerial part weight [3, 6]: 49 g/stock; Aerial part weight [3, 7]: 45 g/stock; capability of controlling nematodes (in words) ([3]; comparison abamectin vs moxidectin, 0.15-0.6 ppm in soil): slightly better effect than moxidectin; Root-knot parasitism level [3, 5]: 2.38; Root-knot parasitism level [3, 6]: 1.17; Root-knot parasitism level [3, 7]: 1.00
2 | CC1=C[C@H]2C(=O)O[C@H]3C[C@@H](C/C=C(\C)C[C@@H](C)/C=C/C=C4\CO[C@H]([C@@H]1O)[C@@]42O)O[C@]1(C3)C[C@H](O)[C@H](C)[C@@H](/C(C)=C/C(C)C)O1 [NEM, nemadectin] | 3.0 | – | 4.00 | –
3 | ivermectin | 3.7 | apparent nematode control effect | 0.83 | –
4 | CO[C@H]1C[C@H](O[C@@H]2/C(C)=C/C[C@@H]3C[C@@H](C[C@]4(CC[C@H](C)[C@@H](C5CCCCC5)O4)O3)OC(=O)[C@@H]3C=C(C)/C(=N/O)[C@H]4OC/C(=C\C=C\[C@@H]2C)[C@]43O)O[C@@H](C)[C@@H]1O [SEL, selamectin] | 2.6 | apparently exhibited fewer effects | 4.00 | –
5 | CO[C@H]1C[C@H](O[C@H]2[C@H](C)O[C@@H](O[C@@H]3/C(C)=C/C[C@@H]4C[C@@H](C[C@]5(C=C[C@H](C)[C@@H](C6CCCCC6)O5)O4)OC(=O)[C@@H]4C=C(C)[C@@H](O)[C@H]5OC/C(=C\C=C\[C@@H]3C)[C@]54O)C[C@@H]2OC)O[C@@H](C)[C@@H]1O [DOR, doramectin] | 3.8 | apparent nematode control effect | 0.58 | –
6 | milbemectin | 2.5 | – | 4.00 | solubility to water [4]: 0.00088 mg/mL
7 | CNC(=O)O/N=C(\SC)C(=O)N(C)C [oxamyl] | – | – | – | solubility to water [4]: 280 mg/mL (≈ 1280 mM)
8 | CO/N=C1\C[C@]2(C[C@@H]3C[C@@H](C/C=C(\C)C[C@@H](C)/C=C/C=C4\CO[C@@H]5[C@H](O)C(C)=C[C@@H](C(=O)O3)[C@]45O)O2)O[C@H](/C(C)=C/C(C)C)[C@H]1C [MOX, moxidectin] | 4.1 | – | 1.33 | Aerial part weight [3, 5]: 44 g/stock; Aerial part weight [3, 6]: 54 g/stock; Aerial part weight [3, 7]: 42 g/stock; Root-knot parasitism level [3, 5]: 2.81; Root-knot parasitism level [3, 6]: 1.75; Root-knot parasitism level [3, 7]: 1.38
9 | emamectin | 3.3 | apparently exhibited fewer effects | 3.92 | –
10 | lepimectin | 3.1 | – | 4.00 | –
